Measured values reported in US20230340012A1, “NATURAL AND SYNTHETIC COMPOUNDS FOR TREATING CANCER AND OTHER DISEASES” (PACIFIC ARROW LIMITED, priority 2009, published 2023).
Converted amounts (≈) assume the structure as drawn.

Key:
[1] = tested on: Y79 (retinoblastoma); assay: Inhibition of eye cancer cells Y79 (retinoblastoma), MTT; assay type: cell-based, human; conditions: 2 days
Experimental: Cells: Human Eye cancer cells Y79 (retinoblastoma) are cultured in RPMI1640 medium supplemented with 20% FCS, glutamine and antibiotics.
Starting cells concentration: 400 K per ml in a 24-well plate.
Drug: Tig-S and Tig-R (100× stock solution in 10%DMSO-90% RPMI-1640).
Drug-treatment: Cells were cultured with or without drug (DMSO control) for 2 days. After Drug-treatment, the quantity of live cells is determined with MTT assay*. With this method, the percentage of cell growth with drugs was determined by comparing to those of no-drug (DMSO) control.
MTT assay. To measure the amount of live cells, MTT (3-[4,5-Dimethylthiazol-2-yl]-2,5-diphenyl-tetrazolium bromide) (0.5 mg/ml) was added to cultures and incubated for an hour. Cells were then collected by centrifugation. The formation of formazan (proportion to live cells activity) in the cells was dissolved with DMSO and the O.D. at 490 nm was measured by an ELISA reader. The MTT level of cells before drug-treatment (T0) and after the drug-treatment (TD) was measured. The % cell-growth (%G) is calculated as: %G = (TD-T0) / (TC-T0) × 100 where TC or TD represent O.D. readings of control or drug-treated cells.
When T0 > TD, then the negative growth (cytotoxicity) is expressed as - % of the control and is calculated as: - %G = (TD-T0) / T0) × 100.

[2] = tested on: Erythrocytes (RBC); assay: The haemolytic assay
Experimental: Erythrocytes (RBC) were isolated from human blood (EDTA whole blood, collected randomly). 50 ul of the 10% RBC suspension (in PBS) was added to 2 ml of sample solutions (concentration range from 0.1 ug/ml to 400 ug/ml) in PBS. The mixture was vortexed briefly and sat for 60 min at room temperature. The mixture was spun at 3 K for 10 min and the relative amounts of lysed hemoglobin in the supernatant were measured at 540 nm.

[3] = tested on: WI38; assay: MTT assay, normal human lung fibroblast (WI38); assay type: cell-based
Experimental: Method: A. Cells • -WI38 is a Normal Lung fibroblast. Cells were grown in MEM medium supplemented with 10% FCS, antibiotics and glutamine. 20 K cells were seeded per well (96-welled plate) for one day before drug-treatment • -ES2 is an Ovary Clear cells carcinoma. Cells were grown in RPMI-1640 medium supplemented with 10% FCS, antibiotics and glutamine. 10 K cells were seeded per well (96-welled plate) for one day before drug-treatment.
B. Drug treatment: • -Drug: Tig-S. stored as 1000x stock solution in DMSO. • -Drug concentration used: from 0.15 - 20 ug/ml. • -Drug-treatment was carried out for 2 days (ES2) or 6 days (WI38). For the 6 days incubation, cells were fed with fresh medium (with drug) on day 3 and 5.
C. At the end of the drug-treatment, cytotoxic test was performed with MTT assay.

[4] = tested on: cancer cells; assay: MTT cytotoxic assay of esterification products (Cytotoxicity activity); assay type: cell-based, human
How it was run: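 Cytotoxicity was read by MTT (Carmichael method, modified), with cells seeded 24 h ahead of treatment. Sixteen human cancer lines spanning bone, lung, bladder, ovary, colon, pancreas, prostate, skin, mouth, kidney, breast, liver, brain, leukemia and cervix were used. Test samples were acyl chloride esterification products of triterpenes, as mixtures or HPLC-purified compounds.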

[5] = esterification products isolated with HPLC, graded strong / moderate / weak

Row | Compound | IC50, eye cancer Y79 retinoblastoma [1] | hemolytic activity ([2]; in words, no concentration given) | hemolytic activity ([2]; up to 20 ug/ml) | IC50 in normal human fibroblast cells (WI38) ([3]; MTT) | Cytotoxicity activity [4, 5] | Cytotoxicity activity ([4]; esterification products of E4A—Tig—N with senecioyl chloride) | IC50, WI38 cells ([3]; 6 days drug treatment, MTT) | % of the control cell growth, WI38 ([3]; at 10 ug/ml) | MTT OD as % of the original value, WI38 ([3]; at 20 ug/ml) | cell loss or death, WI38 ([3]; at 20 ug/ml) | cells died, WI38 ([3]; with 10 ug/ml)
1 | 24,28-O-Tigloyl-3β,16α, 21β, 22a, 24β, 28-hexahydroxyolean-12-ene [Tig-R] | 7.5 µg/mL | no hemolytic activity | do not have hemolytic activity | 10 to 15 µg/mL | strong | – | – | – | – | – | –
2 | CC=C(C)C(=O)OCC1(C)C(O)CCC2(C)C1CCC1(C)C2CC=C2C3CC(C)(C)C(O)C(O)C3(CO)C(O)CC21C (centres unmarked) [Tig-N] | – | – | do not have hemolytic activity | – | moderate | moderate | – | – | – | – | –
3 | CC=C(C)C(=O)OCC1(C)C(O)CCC2(C)C1CCC1(C)C2CC=C2C3CC(C)(C)C(OC(=O)C(C)=CC)C(O)C3(CO)C(O)CC21C (centres unmarked) [Tig-S] | 0.1 µg/mL (≈ 0.149 µM) | – | – | – | – | – | 1.5 µg/mL (≈ 2.24 µM) | about 55% | about 90% | about 10% | 10%
